Reference: patent US20260315452A1, “PROTEASE INHIBITORS AND USES THEREOF” (priority 2023, published 2026)
pEC50, pIC50: −log10 of the molar value. Where a name gives a salt, the structure may show the parent alone.

Legend:
[1] = target: SARS-CoV-2 3CLpro (Severe acute respiratory syndrome coronavirus 2, UniProt P0DTD1); assay: biochemical; settings: inhibition of SARS-CoV-2 3CLpro; 15 nM 3CLpro, 25 μM fluorogenic substrate, 37° C.; read-out: Inhibitory Activity (IC50)
[2] = tested on: SARS-CoV-2; assay: Anti-SARS-CoV-2 activity in A549 cells expressing the human ACE2 receptor (inhibition of SARS-CoV-2 replication); assay type: cell-based; settings: Severe acute respiratory syndrome coronavirus 2, A549-ACE2, 24 h, read-out: Antiviral Activity (EC50)

| Structure (SMILES) | pIC50 [1] | pEC50 [2] |
| --- | --- | --- |
| CNC(=O)c1cc(Br)cc([N+](=O)[O-])c1N[C@@H]1CCCC[C@@H]1NC(=O)c1cncc(C(F)(F)F)c1 [Compound 72, N-((1S, 2R)-2 ((4-bromo-2-(methylcarbamoyl)-6-nitrophenyl)amino)cyclohexyl)-5-(trifluoromethyl)nicotinamide] | 5.00 to 6.00 | < 5.00 |
| CNC(=O)c1cc(Br)cc([N+](=O)[O-])c1N[C@H]1CN(C(=O)c2cncc3ccccc23)CC12CC2 [Compound 74, (R)-5-bromo-2-((5-(isoquinoline-4-carbonyl)-5-azaspiro[2,4]heptan-7-yl)amino)-N-methyl-3-nitrobenzamide] | 6.00 to 7.00 | > 7.00 |
| CNC(=O)c1cc(Br)cc([N+](=O)[O-])c1N[C@@H]1CCCN(C(=O)c2cncc3ccccc23)C1 [Compound 75, (R)-5-bromo-2-((1-(isoquinoline-4-carbonyl)piperidin-3-yl)amino)-N-methyl-3-nitrobenzamide] | > 7.00 | > 7.00 |
| O=C(NC1CC(F)(F)C1)c1cc(Br)cc(C(F)(F)F)c1N[C@@H]1COCC[C@@H]1NC(=O)c1cncc2ccccc12 [Compound 79, N-((3S, 4S)-3-((4-bromo-2-((3,3-difluorocyclobutyl)carbamoyl)-6-(trifluoromethyl)phenyl)amino)tetrahydro-2H-pyran-4-yl)isoquinoline-4-carboxamide] | > 7.00 | 6.00 to 7.00 |
| O=C(NC1CC(F)(F)C1)c1cc(Br)cc(C(F)(F)F)c1N[C@@H]1COCC[C@@H]1NC(=O)c1cncc2cc(F)ccc12 [Compound 80, N-((3S, 4S)-3-((4-bromo-2-((3,3-difluorocyclobutyl)carbamoyl)-6-(trifluoromethyl)phenyl)amino)tetrahydro-2H-pyran-4-yl)-7-fluoroisoquinoline-4-carboxamide] | 6.00 to 7.00 | 6.00 to 7.00 |
| C[C@@H](NC(=O)c1cc(Br)cc([N+](=O)[O-])c1N[C@@H]1CCCN(C(=O)c2cncc3ccccc23)C1)C(F)(F)F [Compound 81, 5-bromo-2-(((R)-1-(isoquinoline-4-carbonyl)piperidin-3-yl)amino)-3-nitro-N-((R)-1,1,1-trifluoropropan-2-yl)benzamide] | > 7.00 | > 7.00 |
| O=C(NC1CC(F)(F)C1)c1cc(Cl)cc(C(F)(F)F)c1N[C@H]1CN(C(=O)c2cncc3ccccc23)CCC1(F)F [Compound 82, (S)-5-chloro-2-((4,4-difluoro-1-(isoquinoline-4-carbonyl)piperidin-3-yl)amino)-N-(3,3-difluorocyclobutyl)-3-(trifluoromethyl)benzamide] | > 7.00 | > 7.00 |
| O=C(NC1CC1)c1cc(Cl)cc(C(F)(F)F)c1N[C@H]1CN(C(=O)c2cncc3ccccc23)CCC1(F)F [Compound 83, (S)-5-chloro-N-cyclopropyl-2-((4,4-difluoro-1-(isoquinoline-4-carbonyl)piperidin-3-yl)amino)-3-(trifluoromethyl)benzamide] | > 7.00 | > 7.00 |
| CNC(=O)c1cc(Cl)cc(C(F)(F)F)c1N[C@H]1CN(C(=O)c2cncc3ccccc23)CCC1(F)F [Compound 84, (S)-5-chloro-2-((4,4-difluoro-1-(isoquinoline-4-carbonyl)piperidin-3-yl)amino)-N-methyl-3-(trifluoromethyl)benzamide] | > 7.00 | > 7.00 |
| CC(C)(C)NC(=O)c1cc(Br)cc([N+](=O)[O-])c1N[C@@H]1CCCC[C@@H]1NC(=O)c1cncc2ccccc12 [Compound 85, N-((1S, 2R)-2-((4-bromo-2-(tert-butylcarbamoyl)-6-nitrophenyl)amino)cyclohexyl)isoquinoline-4-carboxamide] | 6.00 to 7.00 | 6.00 to 7.00 |
| CNC(=O)c1cc(Br)cc([N+](=O)[O-])c1N[C@H]1CN(C(=O)c2cncc3ccccc23)CC[C@H]1F [Compound 88, 5-bromo-2-(((3S, 4R)-4-fluoro-1-(isoquinoline-4-carbonyl)piperidin-3-yl)amino)-N-methyl-3-nitrobenzamide] | > 7.00 | > 7.00 |
| CNC(=O)c1cc(Br)cc([N+](=O)[O-])c1N[C@@H]1CN(C)CC[C@@H]1NC(=O)c1cncc2ccccc12 [Compound 89, N-((3R,4S)-3-((4-bromo-2-(methylcarbamoyl)-6-nitrophenyl)amino)-1-methylpiperidin-4-yl)isoquinoline-4-carboxamide] | 5.00 to 6.00 | 5.00 to 6.00 |
| O=C(NCC(F)(F)F)c1cc(Cl)cc([N+](=O)[O-])c1N[C@H]1CN(C(=O)c2cncc3ccccc23)CCC1(F)F [Compound 91, (S)-5-chloro-2-((4,4-difluoro-1-(isoquinoline-4-carbonyl)piperidin-3-yl)amino)-3-nitro-N-(2,2,2-trifluoroethyl) benzamide] | > 7.00 | > 7.00 |
| CNC(=O)c1cc(Cl)cc([N+](=O)[O-])c1N[C@H]1CN(C(=O)c2cncc3ccccc23)CCC1(F)F [Compound 92, (S)-5-chloro-2-((4,4-difluoro-1-(isoquinoline-4-carbonyl)piperidin-3-yl)amino)-N-methyl-3-nitrobenzamide] | > 7.00 | > 7.00 |
| CN1CC[C@@H](NC(=O)c2cc(Cl)cc([N+](=O)[O-])c2N[C@H]2CN(C(=O)c3cncc4ccccc34)CCC2(F)F)C1 [Compound 93, 5-chloro-2-(((S)-4,4-difluoro-1-(isoquinoline-4-carbonyl)piperidin-3-yl)amino)-N-(1-methylpyrrolidin-3-yl)-3-nitrobenzamide hydrochloride] | > 7.00 | > 7.00 |
| CN(C)C1CN(C(=O)c2cc(Cl)cc([N+](=O)[O-])c2N[C@H]2CN(C(=O)c3cncc4ccccc34)CCC2(F)F)C1 [Compound 94, (S)-(5-chloro-2-((4,4-difluoro-1-(isoquinoline-4-carbonyl)piperidin-3-yl)amino)-3-nitrophenyl)(3-(dimethylamino)azetidin-1-yl)methanone hydrochloride] | > 7.00 | > 7.00 |
| CNC1CN(C(=O)c2cc(Br)cc([N+](=O)[O-])c2N[C@H]2CN(C(=O)c3cncc4ccccc34)CCC2(F)F)C1 [Compound 95, (S)-(5-bromo-2-((4,4-difluoro-1-(isoquinoline-4-carbonyl)piperidin-3-yl)amino)-3-nitrophenyl)(3-(methylamino)azetidin-1-yl)methanone hydrochloride] | > 7.00 | > 7.00 |
| CNC(=O)c1cc(Cl)cc([N+](=O)[O-])c1N[C@H]1CN(C(=O)c2cncc3ccccc23)CC[C@@H]1F [Compound 96, 5-chloro-2-(((3S, 4S)-4-fluoro-1-(isoquinoline-4-carbonyl)piperidin-3-yl)amino)-N-methyl-3-nitrobenzamide] | > 7.00 | > 7.00 |
| CNC(=O)c1cc(Br)cc([N+](=O)[O-])c1NC(C(C)C)C1CN(C(=O)c2cncc3ccccc23)C1 (stereo not drawn) [Compound 99, 5-bromo-2-((1-(1-(isoquinoline-4-carbonyl)azetidin-3-yl)-2-methylpropyl)amino)-N-methyl-3-nitrobenzamide] | 6.00 to 7.00 | 6.00 to 7.00 |
| CC(C)C(Nc1c(C(=O)NC2CC(F)(F)C2)cc(Br)cc1[N+](=O)[O-])C1CN(C(=O)c2cncc3ccccc23)C1 (stereo not drawn) [Compound 116, 5-bromo-N-(3,3-difluorocyclobutyl)-2-((1-(1-(isoquinoline-4-carbonyl)azetidin-3-yl)-2-methylpropyl)amino)-3-nitrobenzamide] | 6.00 to 7.00 | 6.00 to 7.00 |
| CC(C)C(Nc1c(C(=O)N[C@H](C)C(F)(F)F)cc(Br)cc1[N+](=O)[O-])C1CN(C(=O)c2cncc3ccccc23)C1 (stereo partly drawn) [Compound 124, 5-bromo-2-((1-(1-(isoquinoline-4-carbonyl)azetidin-3-yl)-2-methylpropyl)amino)-3-nitro-N-((R)-1,1,1-trifluoropropan-2-yl)benzamide] | > 7.00 | > 7.00 |
| O=C(NC1CC1)c1cc(Br)cc([N+](=O)[O-])c1N[C@@H]1CCCN(C(=O)c2cncc3ccccc23)C1 [Compound 125, (R)-5-bromo-N-cyclopropyl-2-((1-(isoquinoline-4-carbonyl)piperidin-3-yl)amino)-3-nitrobenzamide] | > 7.00 | > 7.00 |
| O=C(NC1CC(F)(F)C1)c1cc(Br)cc([N+](=O)[O-])c1N[C@@H]1COCC[C@@H]1NC(=O)c1cncc2ccccc12 [Compound 126, N-((3S, 4S)-3-((4-bromo-2-((3,3-difluorocyclobutyl)carbamoyl)-6-nitrophenyl)amino)tetrahydro-2H-pyran-4-yl)isoquinoline-4-carboxamide] | > 7.00 | > 7.00 |
| CNC(=O)c1cc(Br)cc([N+](=O)[O-])c1NC1CCC2(C1)CN(C(=O)c1cncc3ccccc13)C2 (stereo not drawn) [Compound 127, 5-bromo-2-((2-(isoquinoline-4-carbonyl)-2-azaspiro[3, 4]octan-6-yl)amino)-N-methyl-3-nitrobenzamide] | 5.00 to 6.00 | < 5.00 |
| CNC(=O)c1cc(Br)cc([N+](=O)[O-])c1N1CCC2(CN(C(=O)c3cncc4ccccc34)CC2(F)F)C1 (stereo not drawn) [Compound 129, 5-bromo-2-(9,9-difluoro-7-(isoquinoline-4-carbonyl)-2,7-diazaspiro[4, 4]nonan-2-yl)-N-methyl-3-nitrobenzamide] | 6.00 to 7.00 | 6.00 to 7.00 |
| CNC(=O)c1cc(Br)cc([N+](=O)[O-])c1N[C@@H]1COCC[C@@H]1NC(=O)c1cncc2ccccc12 [Compound 132, N-((3S, 4S)-3-((4-bromo-2-(methylcarbamoyl)-6-nitrophenyl)amino)tetrahydro-2H-pyran-4-yl)isoquinoline-4-carboxamide] | > 7.00 | > 7.00 |
| O=C(NC1CC1)c1cc(Br)cc([N+](=O)[O-])c1N[C@@H]1COCC[C@@H]1NC(=O)c1cncc2ccccc12 [Compound 133, N-((3S, 4S)-3-((4-bromo-2-(cyclopropylcarbamoyl)-6-nitrophenyl)amino)tetrahydro-2H-pyran-4-yl)isoquinoline-4-carboxamide] | > 7.00 | > 7.00 |
